Patent US6620844B2, “Method for reducing blood insulin levels by reducing in vivo cathepsin L activity” (NewMillennium Pharmaceutical, Inc., priority 2001, dated 2003)
Entries after “also recorded” stand apart in the source; their conditions may differ.

Columns and labels:
[1] = target: Cathepsin S (Homo sapiens, UniProt P25774); conditions: at 1 × 10^−6 M; cited from earlier work
[2] = target: Cathepsin B (Homo sapiens, UniProt P07858); conditions: cited from earlier work; for % of Inhibition, Cathepsin B: at 1 × 10^−6 M
[3] = target: Cathepsin L (Homo sapiens, UniProt P07711); conditions: cited from earlier work; for % of Inhibition, Cathepsin L: at 1 × 10^−6 M
[4] = target: T1, Cathepsin K (Homo sapiens, UniProt P43235); conditions: cited from earlier work; for % of Inhibition, Cathepsin K: at 1 × 10^−6 M
T1 sequence (P43235 115-329): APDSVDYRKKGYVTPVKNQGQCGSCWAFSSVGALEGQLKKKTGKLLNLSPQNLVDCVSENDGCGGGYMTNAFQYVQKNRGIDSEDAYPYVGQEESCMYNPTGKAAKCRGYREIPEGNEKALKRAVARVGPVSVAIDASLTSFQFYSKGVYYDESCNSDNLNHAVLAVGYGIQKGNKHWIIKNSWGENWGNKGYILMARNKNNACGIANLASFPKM

[5] = target: Cathepsin C (Homo sapiens, UniProt P53634); conditions: at 1 × 10^−6 M; cited from earlier work
[6] = target: T2, Papain (Carica papaya, UniProt P00784); conditions: cited from earlier work
T2 sequence (P00784 134-345): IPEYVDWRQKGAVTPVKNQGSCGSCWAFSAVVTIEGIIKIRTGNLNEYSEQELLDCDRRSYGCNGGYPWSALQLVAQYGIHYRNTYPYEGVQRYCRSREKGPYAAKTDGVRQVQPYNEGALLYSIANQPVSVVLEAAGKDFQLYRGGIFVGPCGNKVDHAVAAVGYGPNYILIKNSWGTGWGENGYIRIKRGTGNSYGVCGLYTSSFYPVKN

[7] = target: T3, cathepsin B (Mus musculus, UniProt P10605); test: Cysteine protease active site labeling in mouse peritoneal macrophages: cathepsin B; assay type: cell-based; conditions: 10 μM
T3 construct: endogenous in cells; host or cells: thioglycolate-elicited mouse peritoneal macrophages
Protocol: (§1) FIG. 1. Cysteine protease inhibition profile by synthetic inhibitors in mouse peritoneal macrophages. [^125I]-Z-Tyr-Ala-CHN2-labeled mouse peritoneal macrophages were lysed and separated onto 12% SDS-PAGE to visualize labeled active cathepsins. Doses and inhibitors used were all indicated.
(§2) Mouse peritoneal macrophages were generated by injecting mice with thioglycolate as described in Shi et al. (2000) J. Exp. Med. 191:[…]. After 3-4 days of incubation, peritoneal microphages were washed out using Tris-EDTA buffers containing 6 mM EDTA (pH 8.0). Cells were then seeded onto 24-well plates in DMEM with 10% FBS till complete spread. After cells were attached to the plates, different doses of inhibitors were added. After 2-3 hours of incubation, cells were labeled with [^125I]-Z-Tyr-Ala-CHN2 overnight at 37° C. to detect intracellular active cysteine proteases. Cells were lysed into 1× reducing protein sample buffer and separated onto 12% SDS-PAGE.
(§3) First, the synthetic small molecule compounds were tested for their selectivity toward different forms of cathepsin. Mouse peritoneal macrophages were cultured in the presence of selective inhibitors and cysteine protease active site labeling probe [^125I]-Z-Tyr-Ala-CHN2 (Sukhova et al., supra). […] In contrast, other inhibitors used had no effect on cathepsin B activity. […] Therefore, these inhibitors can be utilized to test if the aforementioned cathepsins play roles in the breakdown of insulin receptor (IR) or IR turnover.

[8] = target: T4, cathepsin L (Mus musculus, UniProt P06797); test: Cysteine protease active site labeling in mouse peritoneal macrophages: cathepsin L; assay type: cell-based; conditions: 10 μM, mouse peritoneal macrophages
T4 construct: endogenous in cells; host or cells: thioglycolate-elicited mouse peritoneal macrophages
Protocol: as §1, §2, §3

[9] = target: T5, cathepsin K (Mus musculus, UniProt P55097); test: Cysteine protease active site labeling in mouse peritoneal macrophages: cathepsin K; assay type: cell-based; conditions: 10 μM
T5 construct: endogenous in cells; host or cells: thioglycolate-elicited mouse peritoneal macrophages
T5 sequence (P55097 115-329): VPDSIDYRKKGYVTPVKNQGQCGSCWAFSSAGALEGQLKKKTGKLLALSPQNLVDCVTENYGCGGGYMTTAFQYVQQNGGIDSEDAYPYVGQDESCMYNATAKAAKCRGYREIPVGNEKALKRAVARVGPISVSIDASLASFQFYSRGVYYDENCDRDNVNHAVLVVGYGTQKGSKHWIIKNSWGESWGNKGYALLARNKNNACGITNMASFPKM
Protocol: as §1, §2, §3

[10] = tested on: insulin receptor β subunit; test: Insulin receptor turnover in human preadipocytes, Western blot; assay type: cell-based; conditions: 10 μM, human preadipocytes
Protocol: FIG. 2. […] Human preadipocytes were incubated with and without inhibitors indicated at different doses, lysed, separated onto 7% SDS-PAGE, and probed with goat anti-human insulin receptor β-subunit polyclonal antibodies. Both mature β subunit and its precursor were indicated.
(§4) Human preadipocytes were initially cultured in MSCGM medium (BioWhitaker) at 37° C. and 5% CO2 for 7 to 12 days with 3-4 changes of media till complete confluence. Non-induced cells were kept in adipogenesis maintenance media containing 0.01 mg/ml of insulin, 0.05 units/ml of penicillin, 0.05 μg/ml of streptomycin, and 10% fetal bovine serum. To induce adipogenesis, complete confluent cells were cultured in adipogenesis induction medium containing 1 μM dexamethasone, 0.2 mM indomethacin, 0.01 mg/ml insulin, 0.5 mM 3-isobutyl-1-methyl-xanthine, 0.05 units/ml of penicillin, 0.05 μg/ml of streptomycin, and 10% fetal bovine serum in the presence and absence of protease inhibitors for 3 days followed by three days of culture in maintenance media. After three cycles of induction and maintenance, cells were cultured in maintenance media for additional 7 days with two changes of fresh media.
(§5) After differentiation, cells were collected, and lysed into 1×RIPA buffer. Protein concentrations were determined using Bio-Rad Dc protein assay system according to the manufacturer (Bio-Rad, Hercules, Calif.). Equal amount of proteins were separated on 7% SDS-PAGE for detecting IR and IGF-1R, 12% SDS-PAGE for detecting cathepsins S, K, and L antigens. Both IR and IGF-1R primary polyclonal antibodies were raised from goat and all cathepsin antibodies were polyclonal antibodies raised from rabbit. The corresponding HRP-conjugated secondary antibodies were used for detections.
To test which cathepsin is involved in the IR turnover, human preadipocytes (BioWhittaker, Walkersville, Md.) were induced to become adipocytes in the presence and absence of inhibitors. Differentiated adipocytes expressed more IR than controls as previously reported. Pederson et al. (2000) Biochem. Biophys. Res. Commun. 276:162-168. Cathepsin B inhibitor (CA 074, 10 μM) and catepsin S inhibitor (CLIK 060, 2 μM) had no effect on either IR turnover or differentiation (FIGS. 2). […] The same is true when the blot was tested with insulin like growth factor I receptor (IGF-IR) antibodies (FIG. 3).

[11] = tested on: insulin like growth factor I receptor (IGF-IR); test: IGF-IR levels in human preadipocytes, Western blot; assay type: cell-based; conditions: 10 μM
Protocol: FIG. 3. […] Cells were treated as in FIG. 2. Western blot analysis was performed using goat anti-human IGF-1R polyclonal antibodies.
as §4, §5
To test which cathepsin is involved in the IR turnover, human preadipocytes (BioWhittaker, Walkersville, Md.) were induced to become adipocytes in the presence and absence of inhibitors. Differentiated adipocytes expressed more IR than controls as previously reported. Pederson et al. (2000) Biochem. Biophys. Res. Commun. 276:162-168. Cathepsin B inhibitor (CA 074, 10 μM) and catepsin S inhibitor (CLIK 060, 2 μM) had no effect on either IR turnover or differentiation (FIGS. 2). […]

[12] = tested on: CCAAT/enhancer-binding protein-α (C/EBP-α); test: C/EBP-α levels in human preadipocytes, Western blot; assay type: cell-based; conditions: human preadipocytes differentiated with inhibitor, FIG. 4
Protocol: FIG. 4. Inhibition of cathepsin L blocked the expression of CCAAT/enhancer-binding protein. Human preadipocytes were differentiated as in FIG. 2. A 10% gel was used to perform Western blot analysis using goat anti-human C/EBP-α polyclonal antibodies and the blot was detected using the corresponding HRP-conjugated secondary antibodies.
as §4
(§6) To evaluate the cell differentiation levels affected by aforementioned inhibitors, the levels of transcription factors CCAAT/enhancer-binding protein-α (C/EBP-α) as well as peroxisome proliferator-activated receptor-γ (PPAR-γ) from cells treated with and without inhibitors were measured. Both C/EBP-α and PPAR-γ are important adipocyte determination factors. Wu et al. (1999) Mol. Cell. 3:151-158; Tanaka et al. (1997) EMBO J. 16:7432-7443; and Tontonoz et al. (1994) Cell 79:1147-1156.

[13] = tested on: peroxisome proliferator-activated receptor-γ (PPAR-γ); test: PPAR-γ levels in human preadipocytes, Western blot; assay type: cell-based; conditions: human preadipocytes differentiated with inhibitor, FIG. 5
Protocol: FIG. 5. Inhibition of cathepsin L blocked the expression of PPAR-γ. Human preadipocytes were used and Western blot analysis was performed as in FIG. 4 instead of using mouse anti-human PPAR-γ monoclonal antibodies as the primary antibodies.
as §4, §6

[14] = tested on: human preadipocytes; test: Human preadipocyte adipogenesis, oil-red staining; assay type: cell-based; conditions: 10 μM, human preadipocytes
Protocol: FIG. 6. Oil-red staining of human preadipocytes and adipocytes.
as §4
This hypothesis is further confirmed by oil-red staining of CLIK 148 or 195 treated preadipocytes (FIG. 6). In addition, inhibition of adiogenesis by these two inhibitors is dose dependent. Less than 50% of adipogenesis was blocked by 1 μM of such inhibitors. […] In contrast, 1 μM of CLIK 060, 1 or 10 μM of CA 074 had no effect on adipogenesis (data not shown). Therefore, these observations indicate that cathepsin L appears to play a more critical role than cathepsins S and K in adipogenesis by controlling insulin/IR complex turnover.

[15] = tested on: mouse 3T3-L1 cells; test: Mouse 3T3-L1 preadipocyte adipogenesis, oil-red staining; assay type: cell-based; conditions: 15 μM
Protocol: FIG. 9. Effect of cathepsin L inhibitor during mouse 3T3-L1 preadipocyte differentiation. Mouse 3T3-L1 cells were induced for adipogenesis. CLIK 148 (10 μM) was […] at different time points (days) during adipogenesis. Cells were stained with oil-red at the end of differentiation.
Mouse preadipocytes were differentiated as described in Patel and Lane (2000) J. Biol. Chem. 275:17653-17660. In brief, mouse 3T3-L1 cells were cultured in DMEM containing 10% calf serum till confluence at 37° C. with 10% CO2. After additional two days maintenance in the same media, cells were differentiated by adding 0.5 mM methylisobutylxanthine, 1 μM dexmethasone, 1 μg/ml insulin, and 10% FBS for two days in the presence and absence of protease inhibitors. Culture media were replaced with DMEM containing 1 μg/ml insulin and 10% FBS. After day 4 the cells were fed every other day with 10% FBS in DMEM without insulin. By days 7-8, cells were fully differentiated.
Similar phenotypes were observed using mouse preadipocytes 3T3-L1 (ATCC, Manassas, Va.). Both active cathepsins L and S were found in differentiated adipocytes (FIG. 8, days 8-11). However, levels of both enzyme increased after the differentiation, a phenomenon different from that of human preadipoicytes. […] Cathepsin K antigen was detected in preadipocytes but not adipocytes nor insulin treated cells (FIG. 10).

[16] = tested on: rat model of human glomerular disease; conditions: cited from earlier work

Cathepsin L, sequence (P07711 114-333, species assumed): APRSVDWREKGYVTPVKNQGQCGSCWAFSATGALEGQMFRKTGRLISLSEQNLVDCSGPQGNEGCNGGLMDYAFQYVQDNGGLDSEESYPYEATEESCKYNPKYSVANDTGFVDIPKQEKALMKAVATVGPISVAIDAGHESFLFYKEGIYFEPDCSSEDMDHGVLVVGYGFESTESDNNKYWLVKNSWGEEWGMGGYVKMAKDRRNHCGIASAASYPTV
Cathepsin C, sequence (P53634 25-463, species assumed): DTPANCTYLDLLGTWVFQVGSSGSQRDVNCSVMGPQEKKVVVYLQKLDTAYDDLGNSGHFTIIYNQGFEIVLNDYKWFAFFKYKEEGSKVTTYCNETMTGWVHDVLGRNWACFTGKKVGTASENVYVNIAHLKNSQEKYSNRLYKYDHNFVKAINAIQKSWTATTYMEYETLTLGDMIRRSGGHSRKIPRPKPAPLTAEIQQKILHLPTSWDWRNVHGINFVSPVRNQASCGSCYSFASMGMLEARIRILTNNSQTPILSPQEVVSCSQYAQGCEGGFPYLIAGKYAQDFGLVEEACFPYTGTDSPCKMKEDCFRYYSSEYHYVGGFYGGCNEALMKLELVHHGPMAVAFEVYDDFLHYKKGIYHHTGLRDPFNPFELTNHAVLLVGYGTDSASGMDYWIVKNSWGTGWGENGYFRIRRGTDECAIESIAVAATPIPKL
Cathepsin S, sequence (P25774 115-331, species assumed): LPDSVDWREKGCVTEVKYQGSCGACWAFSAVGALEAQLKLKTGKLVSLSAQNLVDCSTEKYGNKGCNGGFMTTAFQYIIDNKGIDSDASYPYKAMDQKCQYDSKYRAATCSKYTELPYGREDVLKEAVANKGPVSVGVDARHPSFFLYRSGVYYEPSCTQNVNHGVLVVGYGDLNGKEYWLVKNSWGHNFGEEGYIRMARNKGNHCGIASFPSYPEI
T3 sequence (P10605 80-333 limits assumed): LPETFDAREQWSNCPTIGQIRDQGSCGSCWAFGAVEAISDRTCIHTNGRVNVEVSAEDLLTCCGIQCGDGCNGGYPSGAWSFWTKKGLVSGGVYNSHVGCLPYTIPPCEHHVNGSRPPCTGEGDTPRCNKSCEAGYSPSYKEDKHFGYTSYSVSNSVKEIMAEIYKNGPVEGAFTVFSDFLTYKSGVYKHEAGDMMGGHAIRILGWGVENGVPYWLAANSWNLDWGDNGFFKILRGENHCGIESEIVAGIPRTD
T4 sequence (P06797 114-334): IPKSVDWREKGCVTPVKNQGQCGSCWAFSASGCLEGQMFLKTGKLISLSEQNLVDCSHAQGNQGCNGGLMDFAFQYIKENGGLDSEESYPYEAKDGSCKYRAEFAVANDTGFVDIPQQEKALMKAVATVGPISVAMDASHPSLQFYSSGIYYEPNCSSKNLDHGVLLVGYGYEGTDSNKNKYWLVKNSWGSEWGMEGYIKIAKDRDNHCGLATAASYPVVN

## CN(C)C(=O)[C@H](Cc1ccccc1)NC(=O)C1O[C@@H]1C(=O)NCCc1ccccn1 (stereo partly drawn)
[1]
  % of Inhibition, Cathepsin S: 30%
[2]
  % of Inhibition, Cathepsin B: 0%
[3]
  % of Inhibition, Cathepsin L: 100%
[4]
  % of Inhibition, Cathepsin K: 0%
[5]
  % of Inhibition, Cathepsin C: 0%

## CN(C)C(=O)[C@H](Cc1ccccc1)NC(=O)C1O[C@@H]1C(=O)N[C@@H](Cc1ccccc1)C(=O)N(C)C (stereo partly drawn)
[1]
  % of Inhibition, Cathepsin S: 25%
[2]
  % of Inhibition, Cathepsin B: 0%
[3]
  % of Inhibition, Cathepsin L: 100%
[4]
  % of Inhibition, Cathepsin K: 0%
[5]
  % of Inhibition, Cathepsin C: 0%

## CCOC(=O)[C@H]1N[C@@H]1C(=O)NC(CC(C)C)C(=O)COC(=O)c1ccccc1 (stereo partly drawn)
[2]
  Cathepsin B: K2nd: 1,607 M^−1Min^−1
[3]
  Cathepsin L: K2nd: 16,261 M^−1Min^−1
[6]
  Papain: K2nd: 1,533 M^−1Min^−1

## O=C(CNC(=O)[C@H](Cc1ccccc1)NC(=O)OCc1ccccc1)NOC(=O)c1ccccc1
[2]
  Ki: 0.8 to 0.9 nM
[3]
  Ki: 0.04 to 0.08 nM
[4]
  Ki: 12 to 16 nM
[6]
  Ki: 2 to 5 nM

## CN(C)C(=O)[C@H](Cc1ccccc1)NC(=O)[C@H]1O[C@@H]1C(=O)NCCc1ccccn1 (relative stereo) [CLIK 148, L-(+)-(2S, 3S)-N-[2-(2′-pyridinyl)-1-ethyl]-Na-amino-(L-phenylalaninedimethylamide)-trans-epoxysuccinamide]
[7]
  cathepsin B activity (active site labeling): not
[8]
  cathepsin L activity (active site labeling): completely inhibited
[9]
  cathepsin K activity (active site labeling): not
[10]
  levels of 95 kDa IR β subunit and its precursor: increased levels
[11]
  levels of IGF-IR β subunit and its precursor (the same as for IR): increased levels
[12]
  accumulation of 50 kDa C/EBP-α: blocking the accumulation
[13]
  accumulation of 50 kDa PPAR-γ: blocking the accumulation
[14]
  inhibition of adipogenesis / differentiation: complete inhibition; also recorded: completely blocked
[15]
  inhibition of adipogenesis in 3T3-L1 cells: inhibition of adipogenesis

## CC(C)CCNC(=O)[C@H](CC(C)C)NC(=O)[C@H]1O[C@@H]1C(=O)O (relative stereo) [trans-epoxysuccinyl-L-leucylamido-(3-methyl)butane]
[16]
  proteinuria: significantly reduced
